Experimental data taken from patent US9150531B2, “Tricyclic lactones for treatment of cancer” (Glactone Pharma Development AB, priority 2010, dated 2015).
pIC50: −log10 of the molar value. Read-outs that look alike come from different tables or passages of the source.

Experiments:
[1] = tested on: NF-κB; assay: NF-κB-dependent transcriptional activity, Jurkat-LTR-Luc (Jurkat 5.1) cells stimulated with TNF-α; type: cell-based; details: TNF-α (2 ng/ml) 6 h, luciferase activity, read-out: IC50 anti-NF-κB
Protocol: The potency of (−)-Galiellalactone and compound examples of the invention in inhibiting NF-κB-dependent transcriptional activity was assayed in a Jurkat-LTR-Luc cell line. This cellular model have been widely used for the screening of natural and synthetic NF-κB inhibitors (Appendino et al, J Nat Prod. 2007, 70(4), 608-612; J Nat Prod. 2006, 69(7), 1101-1104; Marquez et al, Antiviral Res. 2005, 66(2-3), 137-145) Jurkat 5.1 cells were preincubated for 30 min with increasing concentrations of the compounds dissolved in DMSO followed by stimulation with TNF-α (2 ng/ml) for 6 h. Cells were washed twice in PBS and lysed in 25 mM Tris-phosphate, pH 7.8, 8 mM MgCl2, 1 mM DTT, 1% Triton X-100, and 7% glycerol for 15 min at room temperature. Then the lysates were spun down and the supernatant was used to measure luciferase activity using an Autolumat LB 9510 (Berthold Technologies). Protein concentration was determined by the Bradford method (Bio-Rad, Richmond, Calif.). Results below represent the 1050 for each compound in this assay.

[2] = tested on: DU145; assay: WST-1 proliferation assay, DU145 cells (Example 16); type: cell-based, human
Protocol: (§1) The human prostate cancer cell lines DU145, LNCaP (from the American Type culture Collection, ATCC) and long-term interleukin-6 (IL-6) stimulated LNCaP cells (LNCaP-IL6 cells) (Hobisch, Ramoner et al. 2001) were used. The cells were cultured in RPMI 1640 medium supplemented with 10% FBS and 1% penicillin-streptomycin. All cells were incubated at 37° C. in a humidified atmosphere of […] and 5% CO2.
(§2) WST-1 proliferation assay was performed to study the effects of the test items on the proliferation and viability of cultured prostate cancer cells. LNCaP and DU145 cells were cultured in 96-well plates at the density of 2 000 cells/well in 200 μl of medium. Cells were allowed to set for 24 h. The cells were treated with 0, 2.5, 5 or 10 μM of the specific substance for 24 h and 48 h. Samples were made in triplicate. 20 μl WST-1 solution (Roche Applied Science, Mannheim, Germany) was added per well and incubated at 37° C. for 4 h. The absorbance of each well was measured using a scanning multiwell spectrophotometer, ELISA reader at a wavelength of 450 nm and reference wavelength of 690 nm. The results are presented as percent of untreated control cells or the absorbance value.

[3] = tested on: STAT-3 transcription factor; assay: STAT3 inhibition, luciferase reporter (4xM67 pTATA TK-Luc) in HeLa cells stimulated with γ-Interferon; type: cell-based; details: γ-Interferon 8 h, luciferase activity, read-out: Anti STAT3 IC50
Protocol: HeLa cells (4×10^4/ml) were transiently transfected with a luciferase reporter plasmid (4×M67 pTATA TK-Luc) driven by artificial promoter containing 4 repeated M67 binding sites in tandem for the STAT-3 transcription factor. The transfections were performed for 24 h using Roti-Fect reagent (Carl Roth, Karlsruhe, Germany) according to the manufacturer's recommendations. After incubation with different concentrations of the extracts for 30 min the transfected cells were stimulated for 8 h with γ-Interferon. Then, the cells were lysed in 25 mM Tris-phosphate pH 7.8, 8 mM MgCl2, 1 mM DTT, 1% Triton X-100, and 7% glycerol. Luciferase activity was measured as described for 5.1 cells.
γ-Interferon induces an average of 5-6 fold induction of the luciferase activity compared to non stimulated cells and this represent the index of transactivation that is represented in our experiment as the maximum levels of γ-Interferon-induced STAT-3 activation (100%). Results below represent the IC50 for each compound in this assay. The IC50 means the concentration of each compound that reduces luciferase activity by 50% and it was calculated by GraphPad software.

[4] = tested on: LNCaP-IL6 cells; assay: WST-1 proliferation assay, LNCaP-IL6 cells; type: cell-based, human
Protocol: as §1, §2

[5] = tested on: IL-6/STAT3 signaling; details: background statement; cited from earlier work

SMILES | pIC50 ([1]; Homo sapiens) | % Proliferation (vs control) 24 h DU145 ([2]; 2.5 uM) [%] | % Proliferation (vs control) 48 h Du145 ([2]; 2.5 uM) [%] | % Proliferation (vs control) 24 h DU145 ([2]; 5 uM) [%] | % Proliferation (vs control) 48 h Du145 ([2]; 5 uM) [%] | % Proliferation (vs control) 24 h DU145 ([2]; 10 uM) [%] | % Proliferation (vs control) 48 h Du145 ([2]; 10 uM) [%] | pIC50 ([3]; Homo sapiens) | % Proliferation (vs control) 24 h LNCaP-IL6 ([4]; 2.5 uM) [%] | % Proliferation (vs control) 48 h LNCaP-IL6 ([4]; 2.5 uM) [%] | % Proliferation (vs control) 24 h LNCaP-IL6 ([4]; 5 uM) [%] | % Proliferation (vs control) 48 h LNCaP-IL6 ([4]; 5 uM) [%] | % Proliferation (vs control) 24 h LNCaP-IL6 ([4]; 10 uM) [%] | % Proliferation (vs control) 48 h LNCaP-IL6 ([4]; 10 uM) [%] | pIC50 [1] | pIC50 [3] | inhibition of IL-6/STAT3 signaling [5]
C[C@H]1C=C2C(=O)OC3[C@H](Cc4ccccc4)C[C@H](C1)[C@]23O (stereo partly drawn) [Example 3, 7-benzyl-2a^1-hydroxy-4-methyl-4,5,5a,6,7,7a-hexahydroindeno[1,7-bc]furan-2(2a^1H)-one] | 5.90 | 56.33 | 31.10 | 52.11 | 18.38 | 44.48 | 14.45 | 5.54 | 57.10 | 27.82 | 59.00 | 18.15 | 53.01 | 12.49 | – | – | –
C[C@H]1C=C2C(=O)OC3C(C)(C)C[C@H](C1)[C@]23O (stereo partly drawn) [Example 1, 2a^1-hydroxy-4,7,7-trimethyl-4,5,5a,6,7,7a-hexahydroindeno[1,7-bc]furan-2(2a^1H)-one] | 5.58 | 80.19 | 67.45 | 68.82 | 35.62 | 54.07 | 22.77 | 5.68 | 65.41 | 52.42 | 68.95 | 26.28 | 69.23 | 16.19 | – | – | –
C[C@H]1C=C2C(=O)OC3[C@H](c4ccccc4)C[C@H](C1)[C@]23O (stereo partly drawn) [Example 2, 2a^1-hydroxy-4-methyl-7-phenyl-4,5,5a,6,7,7a-hexahydroindeno[1,7-bc]furan-2(2a^1H)-one] | 6.48 | 90.64 | 68.04 | 68.55 | 34.07 | 63.86 | 30.26 | 5.93 | 81.79 | 79.56 | 81.21 | 57.14 | 70.45 | 20.19 | – | – | –
C[C@@H]1C=C2C(=O)O[C@@H]3CC[C@H](C1)C23O (single isomer, unassigned; (-)) [(−)-Galiellalactone, reference compound] | – | 84.24 | 76.36 | 63.19 | 38.51 | 48.44 | 22.24 | – | 90.91 | 96.78 | 68.76 | 68.76 | 77.11 | 23.22 | 5.26 | 5.11 | submicromolar
